# Literature values as cited in patent US20160000075A1, “USE OF PYRIMIDINES IN STIMULATION OF PLANT GROWTH AND DEVELOPMENT AND ENHANCEMENT OF STRESS TOLERANCE” (ULUDAG ÜNIVERSITESI TEKNOLOJI TRANSFER OFISI TICARET VE …, priority 2013, published 2016).
# Experiments:
# [1] = tested on: hypoxic and ischemic brain injuries; details: animal experiments and some clinical studies
# clover = details: external administration
# cabbage = details: external administration
# [2] = tested on: plant species such as Arabidopsis thaliana, Solanum tuberosum, Fragaria×ananassa, Medicago sativa, Triticum aestivum, Zea mays; details: external administration
# [3] = tested on: brain lesion, rotational behaviour; details: uridine administered in the form of UMP
# tomato = details: 4 mM concentration
# [4] = tested on: learning and memory functions; details: experimental animals, also environmentally impoverished animals
# cellular regeneration = details: compared to only using auxin in culture medium
# [5] = tested on: hypoxic ischemic brain damage; details: infant rats exposed to hypoxic ischemic brain damage
# [6] = humans
structure (smiles),measurement,setting,value
"C[N+](C)(C)CCOP(=O)(O)OP(=O)([O-])OC[C@H]1O[C@@H](n2ccc(N)nc2=O)[C@H](O)[C@@H]1O [CDP-choline, cytidine-5′-diphosphate choline]",damage in hypoxic and ischemic brain injuries,[1],reduces damage in hypoxic and ischemic brain injuries
"C[N+](C)(C)CC(=O)O [GlyBet, glycine betain]",tolerance against frost,clover,increases tolerance against frost
same,tolerance against frost,cabbage,increases tolerance against frost
same,low temperature stress tolerance,[2],increase low temperature stress tolerance
"O=c1ccn([C@@H]2O[C@H](COP(=O)(O)O)[C@@H](O)[C@H]2O)c(=O)[nH]1 [UMP, uridine-5′-monophosphate]",brain lesion and rotational behaviour,[3],ameliorated brain lesion and reduced rotational behaviour
NCCCCNCCCN [spermidine],high temperature tolerance,tomato,increase high temperature tolerance
O=c1ccn([C@@H]2O[C@H](CO)[C@@H](O)[C@H]2O)c(=O)[nH]1 [uridine],learning and memory functions,[4],increase learning and memory functions
same,cellular regeneration,cellular regeneration,increases cellular regeneration
same,growth and branching of neurons,neurons in the culture,increases the growth and branching of these cells
same,level of brain damage,[5],significantly reduced the level of damage
same,adverse effect of intravenous dose,"[6]; intravenously, 10 g/m^2",cause shaking
same,adverse effect of high oral dosage,"[6]; oral, 10 g per day",causes diarrhea
